Source: patent US12213984B2, “Immunoregulatory agent” (KYUSHU UNIVERSITY, NATIONAL UNIVERSITY CORPORATION, priority 2015, dated 2025)

Assays:
Trio = target: T1, Trio (Homo sapiens, UniProt O75962); assay: in-vitro GEF assay, Rac activation by Trio (Experimental Example 1); format: biochemical
T1 construct: a DH-PH domain of the Trio protein and the Tiam protein; Histidine-SUMO (N); made in house; host or cells: E. coli Arctic express DE3 (pET28a)
Procedure: The selectivity of the effect of inhibiting the GEF of DOCK2 by cholesterol 3-sulfate was examined. All of DOCK2, Trio, and Tiam are GEFs activating Rac. In the presence of serially diluted cholesterol 3-sulfate, the Rac activation ability of a DOCK2 protein, a Trio protein, and a Tiam protein was measured by in-vitro GEF assay. For the in-vitro GEF assay, a labeled GTP (trade name, “Bodipy-FL-GTP”, manufactured by Invitrogen) was used, because it has a property of increasing fluorescence intensity when binds to Rac by the action of GEF. […]
During the reaction, the change in the fluorescence intensity of Bodipy-FL-GPT was monitored using a spectrofluorometer Enspire manufactured by PerkinElmer Inc (excitation wavelength: 488 nm, emission wavelength: 514 nm). By calculation, the values obtained by the measurement were corrected such that the fluorescence intensity became 0 at a reaction starting point (0 second).
Then, by using software (trade name “GraphPad Prism 5”, manufactured by GraphPad Software Inc.), an approximation curve was created which is obtained in a case where the calculated corrected values are plotted on the y-axis and time (t) is plotted on the x-axis. […]

[1] = test system: inflammatory cells infiltrating into the conjunctiva; assay: ragweed pollen-induced conjunctivitis model in Sult2B1b gene knockout mice, application to the eyes; format: in vivo, mouse; settings: applied into the eyes before and after topical challenge
Procedure: An examination was performed on conjunctivitis models induced by sensitizing Sult2B1b gene hetero-type mice (+/−) and Sult2B1b gene knockout mice (−/−) with ragweed pollen and topically challenged with the same antigen at 10 and 12 days later. The eyeball section of each category of the mice was subjected to hematoxylin-eosin (HE) staining and observed using an optical microscope. Thereafter, the Sult2B1b gene knockout mice (−/−) were exposed to ragweed pollen, and cholesterol 3-sulfate was applied into the eyes of the mice before and after the topical challenge with ragweed pollen. […] As a control, a mouse for whom only a vehicle was applied into its eyes was used.

[2] = target: T2, binding of the DHR-2 domain of DOCK2 to Rac (Homo sapiens, UniProt Q92608); assay: pull-down assay using GST-Rac beads, binding of DOCK2 DHR-2 to Rac; settings: 150 μM
T2 construct: 1 μg of a protein composed of the lobe B and the lobe C of the DHR-2 domain of DOCK2; made in house; host or cells: E. coli Arctic express DE3 (DOCK2 fragment); E. coli BL21 DE3 (GST-Rac)
T2 sequence (Q92608 1196-1622): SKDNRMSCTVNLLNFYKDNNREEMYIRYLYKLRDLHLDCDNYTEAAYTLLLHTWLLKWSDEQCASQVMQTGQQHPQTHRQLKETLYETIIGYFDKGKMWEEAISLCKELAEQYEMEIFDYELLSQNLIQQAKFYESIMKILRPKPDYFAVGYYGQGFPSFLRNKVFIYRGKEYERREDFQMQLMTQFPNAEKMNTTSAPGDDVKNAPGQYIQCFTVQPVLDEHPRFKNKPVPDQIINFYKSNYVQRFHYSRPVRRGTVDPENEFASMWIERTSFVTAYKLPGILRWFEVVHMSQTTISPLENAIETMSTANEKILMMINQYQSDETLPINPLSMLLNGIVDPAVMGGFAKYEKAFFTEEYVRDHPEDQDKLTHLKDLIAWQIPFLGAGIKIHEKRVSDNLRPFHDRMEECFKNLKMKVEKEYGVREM

[3] = target: T3, protein composed of the lobe B and the lobe C of the DHR-2 domain of DOCK2 (Homo sapiens, UniProt Q92608); assay: ELISA binding of steroid compounds to DHR-2 domain of DOCK2; settings: steroid immobilized at 100 μg/ml, protein 2 μg/mL
T3 construct: the HIS-SUMO tagged protein composed of the lobe B and the lobe C of the DHR-2 domain of DOCK2; made in house; host or cells: E. coli Arctic express DE3 (pET28a)
T3 sequence (Q92608 1196-1622): T2 sequence (Q92608 1196-1622)
Procedure: First, various steroid compounds prepared at 100 μg/ml by using 100% methanol were added in an amount of 50 μL to a 96-well plate for ELISA (trade name “Immulon 4HBX”, Thermo Scientific) and immobilized for 1 hour in a clean bench by air drying. Subsequently, 5% bovine serum albumin (BSA) diluted with TBS (20 mM Tris-HCl-150 mM NaCl, pH 7.5) was added thereto in an amount of 180 μL, the steroid compounds were incubated for 6 hours at 4° C., and the wells were blocked. Thereafter, each of the wells was rinsed three times with 180 μL of PBS-0.01% Tween-20. […] Then, each of the wells was rinsed three times with 180 μL of PBS-0.01% Tween-20. Subsequently, horseradish peroxidase (HRP)-labeled histidine probe (Thermo Scientific) diluted 5,000× was added in an amount of 100 μL to each well, and allowed to incubate for 1.5 hours at room temperature. Thereafter, each of the wells was rinsed three times with 180 μL of PBS-0.01% Tween-20, a 3,3′,5,5′-tetramethyl benzidine (TMB) solution (Thermo Scientific) as an HRP chromogenic substrate was added in an amount of 100 μL to each well so as to initiate a chromogenic reaction, and a stop solution (0.16 M sulfuric acid, Thermo Scientific) was added in an amount of 100 μL to each well so as to stop the reaction. Then, the absorbance at a wavelength of 450 nm was measured.

[4] = test system: neutrophils isolated from the mouse bone marrow; assay: neutrophil migration assay 1 (EZ-TAXIScan, fMLP gradient, pretreated cells); format: cell-based; settings: pretreated 1 hour, fMLP gradient 0 to 10 μM
Procedure: The influence of cholesterol 3-sulfate on a migration speed of neutrophils was examined. More specifically, in the presence of cholesterol 3-sulfate at a predetermined concentration or in the presence of DMSO alone (vehicle control), neutrophils isolated from the mouse bone marrow were incubated for 1 hour at room temperature in 20 mM HEPES-NaOH (pH 7.3)-0.1% BSA-containing RPMI-1640 (Taxiscan medium). The concentration of DMSO was adjusted such that the final concentration of DMSO became 0.2% in all samples.
Then, the pre-treated cells were loaded on wells of one side of the chamber of EZ-TAXIScan (Effector Cell Institute, Inc). After 1 μL of fMLP in a Taxiscan medium was added at a concentration of 10 μM to wells of the other side 260 μm distant from the above wells, neutrophils were allowed to migrate in the presence of a fMLP gradient (0 to 10 μM). Phase-contrast micrographs were obtained for 20 minutes at an interval of 30 seconds, and the trace and speed of neutrophils were analyzed by using manual tracking of the Image J program and a chemotaxis and migration tool.

SMILES: CC(C)CCC[C@@H](C)[C@H]1CC[C@H]2[C@@H]3CC=C4C[C@@H](OS(=O)(=O)O)CC[C@]4(C)[C@H]3CC[C@]12C [C3S, cholesterol 3-sulfate]
- IC50 (Trio): > 300 µM
- infiltration of inflammatory cells into the conjunctiva in response to ragweed pollen [1]: further inhibited
- inhibition of binding of DOCK2 DHR-2 to GST-Rac (Western blotting) [2]: specifically inhibits the binding of DHR-2 to Rac
- binding to the protein composed of lobe B and lobe C of the DHR-2 domain of DOCK2 (ELISA, absorbance 450 nm) [3]: specifically binds
- migration of neutrophils (migration speed) in response to fMLP [4]: markedly inhibited
